# Reference: PubChem BioAssay (NCI)
#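 GI50 = concentration required for 50% inhibition of growth. TGI is the concentration that stops growth completely.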
# Experiments:
# Assay in all cases: inhibition of tumour cell growth, NCI panel, 384-well format
# [1] = test system: U251 glioblastoma
# [2] = test system: ACHN renal
# [3] = test system: OVCAR-4 ovarian
# [4] = test system: HT29 colon
# [5] = test system: OVCAR-5 ovarian
# [6] = test system: LOX IMVI melanoma
# [7] = test system: SNB-75 CNS
# [8] = test system: 786-0 renal
# [9] = test system: BT-549 breast
# [10] = test system: HS 578T breast
# [11] = test system: SF-268 CNS
# [12] = test system: MDA-MB-435 melanoma
# [13] = test system: RXF 393 renal
# [14] = test system: A549 NSCLC
# [15] = test system: MALME-3M melanoma
# [16] = test system: HCT-15 colon
# [17] = test system: MCF7 breast
# [18] = test system: KM12 colon
# [19] = test system: OVCAR-3 ovarian
# [20] = test system: DU-145 prostate
# [21] = test system: CAKI-1 renal
# [22] = test system: HCC-2998 colon
# [23] = test system: SR leukemia
# [24] = test system: PC-3 prostate
# [25] = test system: MDA-MB-468 breast
# [26] = test system: SK-MEL-2 melanoma
# [27] = test system: NCI-H522 lung
# [28] = test system: SN12C renal
# [29] = test system: MOLT-4 leukemia
# [30] = test system: A498 renal
# [31] = test system: RPMI-8226 leukemia
# [32] = test system: SK-MEL-28 melanoma
# [33] = test system: NCI-H23 lung
# [34] = test system: MDA-MB-231 breast
# [35] = test system: EKVX NSCLC
# [36] = test system: COLO 205 colon
# [37] = test system: HOP-92 NSCLC
# [38] = test system: TK-10 renal
# [39] = test system: SK-OV-3 ovarian
# [40] = test system: NCI-H460 NSCLC
# [41] = test system: SW-620 colon
# [42] = test system: SNB-19 CNS
# [43] = test system: SK-MEL-5 melanoma
# [44] = test system: UACC-257 melanoma
# [45] = test system: HL-60(TB) leukemia
# [46] = test system: IGROV1 ovarian
# [47] = test system: M14 melanoma
# [48] = test system: HCT-116 colon
compound,measurement,setting,value
C[C@@H]1CN(CC(=O)N2CC(C)(C)c3nc(CO)c(Cc4ccc(F)cc4)cc32)[C@@H](CN2CCOC[C@H]2C)CN1,GI50,[1],28.1 µM
same,TGI,[1],62.4 µM
same,GI50,[2],61.8 µM
same,TGI,[2],> 100 µM
same,GI50,[3],0.015 µM
same,TGI,[3],0.112 µM
same,GI50,[4],19.3 µM
same,TGI,[4],36.7 µM
same,GI50,[5],38.7 µM
same,TGI,[5],99.8 µM
same,GI50,[6],17.6 µM
same,TGI,[6],31.5 µM
same,GI50,[7],16.3 µM
same,TGI,[7],41.6 µM
same,GI50,[8],20.4 µM
same,TGI,[8],42.2 µM
same,GI50,[9],0.695 µM
same,TGI,[9],27.8 µM
same,GI50,[10],7.75 µM
same,TGI,[10],> 67.2 µM
same,GI50,[11],38.6 µM
same,TGI,[11],> 74.7 µM
same,GI50,[12],47 µM
same,TGI,[12],> 100 µM
same,GI50,[13],0.175 µM
same,TGI,[13],6.79 µM
same,GI50,[14],> 69.2 µM
same,TGI,[14],> 100 µM
same,GI50,[15],0.0411 µM
same,TGI,[15],2.61 µM
same,GI50,[16],27.7 µM
same,TGI,[16],> 83.3 µM
same,GI50,[17],35.2 µM
same,TGI,[17],79.5 µM
same,GI50,[18],28.2 µM
same,TGI,[18],63.8 µM
same,GI50,[19],42.5 µM
same,TGI,[19],> 83.1 µM
same,GI50,[20],> 73.5 µM
same,TGI,[20],> 100 µM
same,GI50,[21],27.9 µM
same,TGI,[21],54 µM
same,GI50,[22],15.8 µM
same,TGI,[22],29.8 µM
same,GI50,[23],15.1 µM
same,TGI,[23],28.5 µM
same,GI50,[24],65.2 µM
same,TGI,[24],> 100 µM
same,GI50,[25],0.483 µM
same,TGI,[25],14.8 µM
same,TGI,[26],14.6 µM
same,GI50,[27],14.2 µM
same,TGI,[27],32.4 µM
same,GI50,[28],> 79 µM
same,TGI,[28],> 100 µM
same,GI50,[29],18.5 µM
same,TGI,[29],35.6 µM
same,GI50,[30],21.5 µM
same,TGI,[30],53.2 µM
same,GI50,[31],23.1 µM
same,TGI,[31],38 µM
same,GI50,[32],14.1 µM
same,TGI,[32],33.3 µM
same,GI50,[33],24.8 µM
same,TGI,[33],99.2 µM
same,GI50,[34],0.103 µM
same,TGI,[34],2.39 µM
same,GI50,[35],29.9 µM
same,TGI,[35],> 88.8 µM
same,GI50,[36],20.5 µM
same,TGI,[36],47 µM
same,GI50,[37],14.6 µM
same,TGI,[37],43.8 µM
same,GI50,[38],27.9 µM
same,TGI,[38],52.9 µM
same,GI50,[39],< 0.0207 µM
same,TGI,[39],4.32 µM
same,GI50,[40],26 µM
same,TGI,[40],56.1 µM
same,GI50,[41],53.5 µM
same,TGI,[41],97.4 µM
same,GI50,[42],99.7 µM
same,TGI,[42],> 100 µM
same,GI50,[43],1.41 µM
same,TGI,[43],20.2 µM
same,GI50,[44],16.1 µM
same,TGI,[44],29.7 µM
same,GI50,[45],4.54 µM
same,TGI,[45],18.9 µM
same,GI50,[46],61.4 µM
same,TGI,[46],> 100 µM
same,GI50,[47],17.2 µM
same,TGI,[47],31.1 µM
same,GI50,[48],35.6 µM
same,TGI,[48],> 91.2 µM
